In article PMC8635623, “A click chemistry approach to pleuromutilin derivatives, evaluation of anti-MRSA activity and elucidation of binding mode by surface plasmon resonance and molecular docking” (Journal of Enzyme Inhibition and Medicinal Chemistry, 2021):
≈ marks a conversion by molar mass, not a printed value.

Legend:
Experiment in all cases: MIC/MBC by broth micro dilution
MRSA ATCC 43300 = assay type: cell-based, methicillin-resistant S. aureus; details: Staphylococcus aureus; for MIC: 37 °C, 24 h, read-out: MIC; for MBC: lowest concentration reducing viable counts by 99.9%
Procedure: (§1) All the synthesised 1,2,3-triazole linked pleuromutilin analogues were screened for in vitro antibacterial activities against methicillin-resistant S. aureus (ATCC 43300), S. aureus (ATCC 29213), and two clinical strains of S. aureus (AD3 and 144, isolated from Guangdong Province, China). The MICs and MBCs of the synthesised pleuromutilin derivatives along with pleuromutilin and tiamulin used as the reference antibacterial drugs, were determined by the broth micro dilution methods according to the Clinical and Laboratory Standards Institute (CLSI)[18].
(§2) The MIC of these novel pleuromutilin derivatives against methicillin-resistant S. aureus (ATCC 43300), S. aureus (ATCC 29213), S. aureus (AD3) and S. aureus (144) were determined by using pleuromutilin and tiamulin as positive control. MIC values were determined by the broth micro dilution methods in accordance with the Clinical and Laboratory Standards Institute (2012). Stock solutions of these compounds were dissolved in methanol to make a stock solution with a concentration of 1280 µg/mL. The working solutions (640 µg/mL) were obtained by diluting stock solutions in sterile Mueller-Hinton (MH) broth. The bacterial solution and solutions of these compounds with a final concentration of 0.016–32 µg/mL were distributed into 96-well plates, with a total volume of 200 µL. Three parallel experiments for each compound concentration. The plates were incubated at 37 °C for 24 h.
(§3) MBC values were determined according to CLSI (2003) and previously report with slightly modification[18]^,[28]^,[31]. After obtaining the MIC results, the 96-well plates were incubated at 37 °C for 24 h. 100 µL of the bacterial solution from the wells with no visible growth was inoculated on MH agar plates. The MH agar plates were incubated at 37 °C for colony count. The MBC was determined as the lowest concentration of compound, which reduces the viable counts for 99.9%.

S. aureus AD3 = assay type: cell-based; details: Staphylococcus aureus, S. aureus AD3 (clinical strain); for MIC: 37 °C, 24 h; for MBC: lowest concentration reducing viable counts by 99.9%
Procedure: as §1, §2, §3

S. aureus ATCC 29213 = assay type: cell-based; details: Staphylococcus aureus; for MIC: ATCC29213, 37 °C, 24 h; for MBC: ATCC29213, lowest concentration reducing viable counts by 99.9%
Procedure: as §1, §2, §3

S. aureus 144 = assay type: cell-based; details: Staphylococcus aureus, S. aureus 144 (clinical strain); for MIC: 37 °C, 24 h; for MBC: lowest concentration reducing viable counts by 99.9%
Procedure: as §1, §2, §3

Row | SMILES | MIC (MRSA ATCC 43300) [mg/L] | MIC (S. aureus AD3) [mg/L] | MIC (S. aureus ATCC 29213) [mg/L] | MIC (S. aureus 144) [mg/L] | MBC (MRSA ATCC 43300) [mg/L] | MBC (S. aureus AD3) [mg/L] | MBC (S. aureus ATCC 29213) [mg/L] | MBC (S. aureus 144) [mg/L]
1 | C=C[C@]1(C)C[C@@H](OC(=O)Cn2cc(CN3CCN(c4cccc(OC)c4)CC3)nn2)[C@]2(C)[C@H](C)CC[C@]3(CCC(=O)[C@H]32)[C@@H](C)[C@@H]1O [Compound 60, 22-(2-(4-(4-(3-Methoxyphenyl)-piperazin-1-yl)-methyl)-1H-1,2,3-triazol-1-yl)-22-deoxy pleuromutilin] | 4 (≈ 6.31 µM) | 4 (≈ 6.31 µM) | 8 (≈ 12.6 µM) | 8 (≈ 12.6 µM) | 8 (≈ 12.6 µM) | 16 (≈ 25.2 µM) | 8 (≈ 12.6 µM) | 16 (≈ 25.2 µM)
2 | C=CC1(C)CC(OC(=O)Cn2cc(CN(C3CCCCC3)C3CCCCC3)nn2)C2(C)C(C)CCC3(CCC(=O)C32)C(C)C1O (centres unmarked) [Compound 81, 22-(2-(4-(Dicyclohexylamino)methyl)-1H-1,2,3-triazol-1-yl)-22-deoxy pleuromutilin] | 4 (≈ 6.42 µM) | 8 (≈ 12.8 µM) | 8 (≈ 12.8 µM) | 8 (≈ 12.8 µM) | 8 (≈ 12.8 µM) | 32 (≈ 51.4 µM) | 16 (≈ 25.7 µM) | 16 (≈ 25.7 µM)
3 | C=CC1(C)CC(OC(=O)Cn2cc(CN3CCOCC3)nn2)C2(C)C(C)CCC3(CCC(=O)C32)C(C)C1O (centres unmarked) [Compound 82, 22-(2-(4-(Morpholinomethyl)methyl)-1H-1,2,3-triazol-1-yl)-22-deoxy pleuromutilin] | 8 (≈ 15.1 µM) | 16 (≈ 30.3 µM) | 16 (≈ 30.3 µM) | 16 (≈ 30.3 µM) | 8 (≈ 15.1 µM) | 32 (≈ 60.5 µM) | 16 (≈ 30.3 µM) | 32 (≈ 60.5 µM)
4 | C=C[C@]1(C)C[C@@H](OC(=O)Cn2cc(CN3CCN(C)CC3)nn2)[C@]2(C)[C@H](C)CC[C@]3(CCC(=O)[C@H]32)[C@@H](C)[C@@H]1O [Compound 48, 22-(2-(4-(4-Methyl-piperazin-1-yl)-methyl)-1H-1,2,3-triazol-1-yl)-22-deoxy pleuromutilin] | 8 (≈ 14.8 µM) | 16 (≈ 29.5 µM) | 16 (≈ 29.5 µM) | 32 (≈ 59.1 µM) | 16 (≈ 29.5 µM) | 32 (≈ 59.1 µM) | 32 (≈ 59.1 µM) | 32 (≈ 59.1 µM)
5 | C=C[C@]1(C)C[C@@H](OC(=O)Cn2cc(CN3CCN(c4ccc(Cl)cc4)CC3)nn2)[C@]2(C)[C@H](C)CC[C@]3(CCC(=O)[C@H]32)[C@@H](C)[C@@H]1O [Compound 58, 22-(2-(4-(4-(4-Chlorophenyl)-piperazin-1-yl)-methyl)-1H-1,2,3-triazol-1-yl)-22-deoxy pleuromutilin] | 4 (≈ 6.27 µM) | 8 (≈ 12.5 µM) | 8 (≈ 12.5 µM) | 16 (≈ 25.1 µM) | 4 (≈ 6.27 µM) | 32 (≈ 50.1 µM) | 16 (≈ 25.1 µM) | 32 (≈ 50.1 µM)
6 | C=CC1(C)CC(OC(=O)Cn2cc(CN3CCC(O)CC3)nn2)C2(C)C(C)CCC3(CCC(=O)C32)C(C)C1O (centres unmarked) [Compound 83, 22-(2-(4-(4-Hydroxypiperidin-1-yl)methyl)-1H-1,2,3-triazol-1-yl)-22-deoxy pleuromutilin] | 8 (≈ 14.7 µM) | 16 (≈ 29.5 µM) | 16 (≈ 29.5 µM) | 32 (≈ 59 µM) | 16 (≈ 29.5 µM) | 32 (≈ 59 µM) | 32 (≈ 59 µM) | 32 (≈ 59 µM)
7 | C=CC1(C)CC(OC(=O)Cn2cc(CN3CCC(CCO)CC3)nn2)C2(C)C(C)CCC3(CCC(=O)C32)C(C)C1O (centres unmarked) [Compound 85, 22-(2-(4-(4-(2-Hydroxyethyl)piperidin-1-yl)methyl)-1H-1,2,3-triazol-1-yl)-22-deoxy pleuromutilin] | 8 (≈ 14 µM) | 16 (≈ 28 µM) | 16 (≈ 28 µM) | 16 (≈ 28 µM) | 8 (≈ 14 µM) | 32 (≈ 56.1 µM) | 32 (≈ 56.1 µM) | 32 (≈ 56.1 µM)
8 | C=C[C@]1(C)C[C@@H](OC(=O)Cn2cc(CN3CCN(c4ccc(O)cc4)CC3)nn2)[C@]2(C)[C@H](C)CC[C@]3(CCC(=O)[C@H]32)[C@@H](C)[C@@H]1O [Compound 67, 22-(2-(4-(4-(4-Hydroxyphenyl)-piperazin-1-yl)-methyl)-1H-1,2,3-triazol-1-yl)-22-deoxy pleuromutilin] | 8 (≈ 12.9 µM) | 16 (≈ 25.8 µM) | 16 (≈ 25.8 µM) | 32 (≈ 51.6 µM) | 16 (≈ 25.8 µM) | > 32 | 32 (≈ 51.6 µM) | 32 (≈ 51.6 µM)

More lines, main results first:

Row | MIC (MRSA ATCC 43300) [mg/L] | MIC (S. aureus AD3) [mg/L] | MIC (S. aureus ATCC 29213) [mg/L] | MIC (S. aureus 144) [mg/L] | SMILES | MBC (MRSA ATCC 43300) [mg/L] | MBC (S. aureus AD3) [mg/L] | MBC (S. aureus ATCC 29213) [mg/L] | MBC (S. aureus 144) [mg/L]
9 | 8 (≈ 14.4 µM) | 16 (≈ 28.7 µM) | 16 (≈ 28.7 µM) | 32 (≈ 57.5 µM) | C=CC1(C)CC(OC(=O)Cn2cc(CN3CCCC(CO)C3)nn2)C2(C)C(C)CCC3(CCC(=O)C32)C(C)C1O (centres unmarked) [Compound 84, 22-(2-(4-(3-(Hydroxymethyl)piperidin-1-yl)methyl)-1H-1,2,3-triazol-1-yl)-22-deoxy pleuromutilin] | 16 (≈ 28.7 µM) | 32 (≈ 57.5 µM) | 32 (≈ 57.5 µM) | 32 (≈ 57.5 µM)
10 | 4 (≈ 6.31 µM) | 4 (≈ 6.31 µM) | 4 (≈ 6.31 µM) | 8 (≈ 12.6 µM) | C=C[C@]1(C)C[C@@H](OC(=O)Cn2cc(CN3CCN(c4ccc(OC)cc4)CC3)nn2)[C@]2(C)[C@H](C)CC[C@]3(CCC(=O)[C@H]32)[C@@H](C)[C@@H]1O [Compound 61, 22-(2-(4-(4-(4-Methoxyphenyl)-piperazin-1-yl)-methyl)-1H-1,2,3-triazol-1-yl)-22-deoxy pleuromutilin] | 16 (≈ 25.2 µM) | 8 (≈ 12.6 µM) | 8 (≈ 12.6 µM) | 16 (≈ 25.2 µM)
11 | 4 (≈ 6.27 µM) | 16 (≈ 25.1 µM) | 8 (≈ 12.5 µM) | 16 (≈ 25.1 µM) | C=C[C@]1(C)C[C@@H](OC(=O)Cn2cc(CN3CCN(c4ccccc4Cl)CC3)nn2)[C@]2(C)[C@H](C)CC[C@]3(CCC(=O)[C@H]32)[C@@H](C)[C@@H]1O [Compound 56, 22-(2-(4-(4-(2-Chlorophenyl)-piperazin-1-yl)-methyl)-1H-1,2,3-triazol-1-yl)-22-deoxy pleuromutilin] | 4 (≈ 6.27 µM) | 32 (≈ 50.1 µM) | 32 (≈ 50.1 µM) | 32 (≈ 50.1 µM)
12 | 4 (≈ 6.45 µM) | 8 (≈ 12.9 µM) | 8 (≈ 12.9 µM) | 8 (≈ 12.9 µM) | C=C[C@]1(C)C[C@@H](OC(=O)Cn2cc(CN3CCN(c4cccc(O)c4)CC3)nn2)[C@]2(C)[C@H](C)CC[C@]3(CCC(=O)[C@H]32)[C@@H](C)[C@@H]1O [Compound 66, 22-(2-(4-(4-(3-Hydroxyphenyl)-piperazin-1-yl)-methyl)-1H-1,2,3-triazol-1-yl)-22-deoxy pleuromutilin] | 8 (≈ 12.9 µM) | 32 (≈ 51.6 µM) | 16 (≈ 25.8 µM) | 16 (≈ 25.8 µM)
13 | 4 (≈ 6.31 µM) | 4 (≈ 6.31 µM) | 8 (≈ 12.6 µM) | 8 (≈ 12.6 µM) | C=C[C@]1(C)C[C@@H](OC(=O)Cn2cc(CN3CCN(c4ccccc4OC)CC3)nn2)[C@]2(C)[C@H](C)CC[C@]3(CCC(=O)[C@H]32)[C@@H](C)[C@@H]1O [Compound 59, 22-(2-(4-(4-(2-Methoxyphenyl)-piperazin-1-yl)-methyl)-1H-1,2,3-triazol-1-yl)-22-deoxy pleuromutilin] | 4 (≈ 6.31 µM) | 16 (≈ 25.2 µM) | 8 (≈ 12.6 µM) | 16 (≈ 25.2 µM)
